Experimental data published in patent US8592401B2, “Methods and compounds for vitamin D therapy” (Proventiv Therapeutics, LLC, priority 2007, dated 2013).
Like-named read-outs stand apart in the source and are kept apart here.

What was measured:
[1] = test system: rats having adenine-induced kidney failure; test: Serum phosphorous in rats having adenine-induced kidney failure; format: in vivo, Sprague Dawley rats
Method: (§1) Soc. Neph., 17; 107-112]. After 4 weeks, normal diet was given to all animals. A control group receiving normal diet during the entire course of the study was used as normal control animals. After the 4 weeks of adenine diet treatment, animals were dosed i.v. 3×/week for 2 or 8 weeks with calcitriol or 1,25-dihydroxyvitamin D2 at 0.01, 0.05, 0.1, 0.25 and 0.5 mg/kg. Serum, plasma kidney and parathyroid gland were collected after 2 and 8 weeks. iPTH and FGF23 in plasma and serum, respectively, were measured using a commercial Elisa kit. Serum calcium was measured using an ORTHO-CLINICAL VITROS 250 chemistry system or an o-cresolphthalein complexone-based assay. Serum phosphorus was measured using an ORTHO-CLINICAL VITROS 250 chemistry system or an ammonium molybdate-based assay. Fibronectin 1 was measured by real-time PCR from cDNA isolated from kidney.

[2] = Stability of compounds in human intestine microsomes; format: in vitro ADME; conditions: microsomes 22 mg/ml, NADPH-generating system, 60 min, 37° C.
Method: Equal parts of 0.1 M phosphate buffer (pH 7.4), NADPH, G-6-P, and G-6-P dehydrogenase were mixed to create a NADPH-generating system, and the final concentration of NADPH, G-6-P, and G-6-P dehydrogenase were 0.8 mM, 8 mM and 0.8 U/ml.
1,25-dihydroxyvitamin D2 and calcitriol were added in to the NADPH-generating system. The final concentrations of the two vitamin D compounds were each […]. A reaction was initiated by the addition of the human intestine microsomes (22 mg/ml) after a 5 min pre-incubation of the reaction at 37° C. After incubation for 60 min, the reaction was terminated by addition of cold 100% acetonitrile. An aliquot of the samples was injected into HPLC to determine the % remaining of the compound.

renal FN1 = test: Renal FN1 (fibronectin 1) expression by real-time PCR in adenine rats; format: in vivo, Sprague Dawley rats; design: extent of suppression of renal FN1 expression, compared to calcitriol-treated animals: dose or concentration left out as unconfirmed; conditions: after 12 days of treatment; for suppression of renal FN1 expression, comparison of the two compounds: 0.1 mg/kg
Method: as §1

[3] = test system: subjects with low serum 1,25-dihydroxyvitamin D; test: Study in subjects with low serum 1,25-dihydroxyvitamin D (Example 1); format: in vivo, human
Method: 1,25-dihydroxyvitamin D2 is used as a treatment for subjects with low serum 1,25-dihydroxyvitamin D in a study involving 50 adults, ages 18-85 years.
The subjects have serum 1,25-dihydroxyvitamin D levels below 20 pg/dL and complete an eight-week baseline period and then 24 weeks of therapy with orally administered 1,25-dihydroxyvitamin D2.
The initial dose of 1,25-dihydroxyvitamin D2 is 1.0 μg, with increases in steps of 0.5 μg/day permitted after four weeks. The maximum dosage is limited to 5.0 μg/day of 1,25-dihydroxyvitamin D2. Subjects are monitored at regular intervals for plasma iPTH, serum calcium and phosphorus, 24-hour and fasting urinary calcium, bone-specific serum markers, plasma total 1,25-dihydroxyvitamin D2 and routine blood chemistries and hematologies.

[4] = test system: rats having adenine-induced kidney failure; design: species or system Sprague Dawley rats; conditions: rat, in vivo, iv
Method: as §1
(§2) These findings indicate that L25-dihydroxyvitamin D2 appears to be less likely to cause calcemia than 1,25-dihydroxyvitamin D3 at doses that have equivalent efficacy.

[5] = test system: rats having adenine-induced kidney failure; test: iPTH levels in rats having adenine-induced kidney failure; format: in vivo, Sprague Dawley rats; conditions: for suppression of serum PTH (iPTH) levels: adenine treated animals, i.v. 3×/week, after two weeks of dosing
Method: as §1, with “3×/week for 2 or 8 weeks with calcitriol or 1,25-dihydroxyvitamin D2 at 0.01, 0.05, 0.1, 0.25 and 0.5 mg/kg.” left out
For reference, PTH values are also shown for animals in the study fed a normal diet (without adenine).
as §2

DBP = biological target: T1, DBP (Homo sapiens, UniProt P02774); conditions: cited from earlier work
T1 sequence (P02774 17-474): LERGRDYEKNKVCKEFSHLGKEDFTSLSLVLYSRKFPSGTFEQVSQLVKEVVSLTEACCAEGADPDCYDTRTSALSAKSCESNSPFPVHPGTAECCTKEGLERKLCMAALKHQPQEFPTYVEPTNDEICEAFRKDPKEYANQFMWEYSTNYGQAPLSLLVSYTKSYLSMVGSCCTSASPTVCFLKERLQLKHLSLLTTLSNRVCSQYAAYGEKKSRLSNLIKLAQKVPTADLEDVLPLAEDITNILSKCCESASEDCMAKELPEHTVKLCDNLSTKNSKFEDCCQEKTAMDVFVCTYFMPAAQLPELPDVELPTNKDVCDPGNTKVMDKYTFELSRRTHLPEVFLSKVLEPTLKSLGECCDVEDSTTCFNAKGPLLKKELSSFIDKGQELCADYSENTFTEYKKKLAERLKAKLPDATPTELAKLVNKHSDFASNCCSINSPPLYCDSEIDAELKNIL

[6] = test system: ESRD human patients undergoing chronic hemodialysis; format: in vivo
Source text: Up to 100 ESRD (End Stage Renal Disease) human patients undergoing chronic hemodialysis are studied in a multicenter, double-blind, placebo-controlled study. The selected patients reside in two major metropolitan areas within the continental U.S., have ages between 20 and 75 years, and have a history of secondary hyperparathyroidism. They have been on hemodialysis for at least four months, have a normal (or near normal) serum albumin, and have controlled serum phosphorus (often by using oral calcium phosphate binders).
On admission to the study, each patient is assigned at random to one of two treatment groups. One of these groups receives two consecutive 12-week courses of therapy with 1,25-dihydroxyvitamin D2; the other group receives one 12-week course of therapy with 1,25-dihydroxyvitamin D2 without interruption, by one 12-week course of placebo therapy. Each patient discontinues any 1α,25-dihydroxyvitamin D3 therapy for eight weeks prior to initiating 1,25-dihydroxyvitamin D2 therapy. Throughout this eight-week washout (or control) period and the two subsequent 12-week treatment periods, patients are monitored weekly for serum calcium and phosphorus. Serum intact PTH is monitored weekly or biweekly, and bone-specific serum markers, serum vitamin D metabolites, serum albumin, blood chemistries, hemoglobin and hematocrit are monitored at selected intervals.
During the study, patients undergo routine hemodialysis (three times per week) using a 1.24 mM calcium dialysate and ingest calcium phosphate binders (such as calcium carbonate or calcium acetate) in an amount sufficient to keep serum phosphate maintained in a range of 3.5 to 5.5 mg/dL. Patients who develop persistent mild hypercalcemia or mild hyperphosphatemia during the treatment periods reduce their 1,25-dihydroxyvitamin D2 dosage. […] Such patients are monitored at twice-weekly intervals until the serum calcium or phosphorus is normalized, and resume 1,25-dihydroxyvitamin D2 dosing.

C2BBe1 cells = test: Alkaline phosphatase and CYP24 in C2BBe1 cells (real-time PCR); format: cell-based; conditions: 100 nM, 10 nM, 8 hours at 37° C.
Method: C2BBe1 cells were treated with […], 100 nM, and 10 nM 1,25-dihydroxyvitamin D2 and calcitriol. Cells were incubated for 8 hours at 37° C. The cells were then lysed in 1 ml of TRIzol reagent. RNA was isolated from cell lysates through phase separation, as per the manufacturer's instructions (INVITROGEN). After cDNA synthesis, real-time PCR was used to quantify alkaline phosphatase and CYP24.

Caco-2 cells = conditions: cited from earlier work
[7] = test system: markers of bone metabolism; conditions: in culture; cited from earlier work
[8] = cited from earlier work
bone resorption = conditions: in vivo; cited from earlier work
healthy male humans = conditions: cited from earlier work

C=C1/C(=C\C=C2/CCC[C@]3(C)[C@@H]([C@H](C)/C=C/[C@H](C)C(C)(C)O)CC[C@@H]23)C[C@@H](O)C[C@@H]1O [1,25-dihydroxyvitamin D2]
elevation of serum phosphorous ([1]; adenine rats, i.v. 3×/week, doses 0.01-0.5): significance only at the highest dose
metabolic stability (% remaining) in human intestinal microsomes [2]: metabolically unstable
suppression of renal FN1 expression, comparison of the two compounds (renal FN1): No difference in suppression
extent of suppression of renal FN1 expression, compared to calcitriol-treated animals (renal FN1): significantly greater
serum 1,25-dihydroxyvitamin D levels between doses [3]: within the patients' normal historical physiological range
doses showing significant elevation of serum calcium [4]: greater than 0.05 μg/kg
suppression of serum PTH (iPTH) levels [5]: in a dose dependant manner can suppress serum PTH levels
PTH inhibition ([5]; dose of 0.05 μg/kg): about 82.7%
DBP binding compared with 1,25-dihydroxyvitamin D3 (DBP): no significant difference
mean serum PTH relative to pretreatment levels ([6]; after initiation of dosing): less than 50 % of pretreatment levels
mean serum PTH in the active group ([6]; end of the second 12-week treatment period): remained controlled
hypercalcemia in patients exhibiting excessive suppression of serum PTH ([6]; human, in vivo): transient mild hypercalcemia is observed
induction of IAP (alkaline phosphatase) activity (C2BBe1 cells): not a potent inducer of IAP activity

C[C@H](/C=C/[C@H](C)C(C)(C)O)[C@H]1CC[C@H]2/C(=C/C=C3C[C@@H](O)C[C@H](O)C3)CCC[C@]12C [19-nor-1,25-dihydroxyvitamin D2]
stimulation of calcium transport (Caco-2 cells): did not show a significant effect
effects on VDR expression, suppression of cell proliferation, osteocalcin and alkaline phosphatase activity versus 1,25-dihydroxyvitamin D3 [7]: indistinguishable
affinity for DBP compared to 1,25-dihydroxyvitamin D3 (DBP): 3 fold lower
half-life ([8]; healthy patients): 4 to 6 h
half-life ([8]; patients with Stage 4 CKD): 20 h
half-life ([8]; patients with chronic renal failure): 15 h
potency in promoting bone resorption relative to 1,25-dihydroxyvitamin D3 (bone resorption): approximately 10 fold less potent

C=C1CC[C@H](O)C/C1=C/C=C1\CCC[C@]2(C)[C@@H]([C@H](C)/C=C/[C@H](C)C(C)C)CC[C@@H]12 [Vitamin D2, ergocalciferol]
course of 25-hydroxyvitamin D2 levels (healthy male humans; 50,000 IU): fell early and were not different from baseline at 14 days
potency relative to Vitamin D3 (healthy male humans; healthy male humans): less than one-third as potent

C=C1CC[C@H](O)C/C1=C/C=C1\CCC[C@]2(C)[C@@H]([C@H](C)CCCC(C)C)CC[C@@H]12 [Vitamin D3, cholecalciferol]
time of peak of 25-hydroxyvitamin D3 levels (healthy male humans; 50,000 IU): 14 days

C=C1/C(=C\C=C2/CCC[C@]3(C)[C@@H]([C@H](C)CCCC(C)(C)O)CC[C@@H]23)C[C@@H](O)C[C@@H]1O [calcitriol, 1α,25-dihydroxyvitamin D3]
elevation of serum phosphorous ([1]; rat, in vivo, iv): significant elevation of phosphorous at the two highest doses
stimulation of calcium transport (Caco-2 cells): 934%
suppression of renal FN1 expression, comparison of the two compounds (renal FN1): No difference in suppression
doses showing significant elevation of serum calcium ([4]; Sprague Dawley): greater than 0.10 μg/kg
inhibition at 0.0001 mg/kg ([5]; Rattus norvegicus, read-out: PTH inhibition): ~13.6%
suppression of serum PTH (iPTH) levels [5]: in a dose dependant manner can suppress serum PTH levels
